The source of these data is patent US10160762B2, “6-alkyl dihydropyrazolopyrimidinone compounds as PDE2 inhibitors” (Merck Sharp & Dohme Corp., priority 2015, dated 2018).

For the experiment, the target named is T1, Rhesus PDE2A3 (Macaca mulatta, UniProt B3VTJ2).
T1 construct: made in house; host or cells: AD293 cells, transient transfection; supernatant of sonicated lysate
T1 sequence (B3VTJ2 1-941): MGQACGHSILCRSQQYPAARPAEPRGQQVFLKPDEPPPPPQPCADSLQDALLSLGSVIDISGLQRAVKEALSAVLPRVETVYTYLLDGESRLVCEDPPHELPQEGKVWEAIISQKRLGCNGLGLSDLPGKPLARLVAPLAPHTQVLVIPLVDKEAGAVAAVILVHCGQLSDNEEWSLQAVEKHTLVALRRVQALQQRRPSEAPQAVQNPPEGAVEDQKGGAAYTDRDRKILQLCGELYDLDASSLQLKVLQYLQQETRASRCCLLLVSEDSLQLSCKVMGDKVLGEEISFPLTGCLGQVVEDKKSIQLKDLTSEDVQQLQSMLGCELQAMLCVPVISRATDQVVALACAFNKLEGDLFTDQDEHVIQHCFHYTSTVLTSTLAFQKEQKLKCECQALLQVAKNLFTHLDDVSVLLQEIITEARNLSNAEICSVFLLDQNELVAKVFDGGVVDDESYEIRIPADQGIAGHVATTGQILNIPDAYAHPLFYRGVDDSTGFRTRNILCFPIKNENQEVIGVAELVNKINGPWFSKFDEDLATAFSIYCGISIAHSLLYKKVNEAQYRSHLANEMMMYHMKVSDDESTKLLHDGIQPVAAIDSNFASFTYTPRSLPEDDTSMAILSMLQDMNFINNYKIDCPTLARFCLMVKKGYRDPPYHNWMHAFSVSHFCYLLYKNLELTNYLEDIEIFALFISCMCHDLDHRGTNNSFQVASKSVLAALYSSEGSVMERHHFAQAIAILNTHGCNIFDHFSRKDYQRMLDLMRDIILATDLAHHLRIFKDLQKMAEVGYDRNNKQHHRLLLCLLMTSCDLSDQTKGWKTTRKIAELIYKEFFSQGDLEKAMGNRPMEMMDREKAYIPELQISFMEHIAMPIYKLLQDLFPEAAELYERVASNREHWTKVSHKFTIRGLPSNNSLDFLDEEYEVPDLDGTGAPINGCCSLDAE
Nature of the experiment: PDE2 fluorescence polarization (IMAP FP) inhibition assay, rhesus PDE2A3. The class given is biochemical, rhesus macaque. The method, boiled down: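 Enzyme source was the lysate supernatant of AD293 cells transiently expressing rhesus PDE2A3, diluted to give 20% conversion of 50 nM FAM-cAMP, with 1 µM cGMP as activator. Buffer was 10 mM Tris pH 7.2, 10 mM MgCl2, 1 mM DTT.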

The mark [1] stands for this setting: Lab A, read-out: Rhesus PDE2 Ki (nM) Lab A.
Setting [2] is: Lab B, read-out: Rhesus PDE2 Ki (nM) Lab B.

Where two headings read alike, the source gives them in different places.

`Cc1nn(C(C)c2ccc(C(F)(F)F)cc2)c2nc(C3CC3)[nH]c(=O)c12` (stereo not shown) [Example 42, 6-Cyclopropyl-3-methyl-1-{1-[4-(trifluoromethyl)phenyl]ethyl}-1,5-dihydro-4H-pyrazolo[3,4-d]pyrimidin-4-one]: the Ki (as a rule, a measure of affinity in units of concentration, obtained from inhibition or displacement) under setting [1] came out at 58 nM. In the case of `CCOCCc1nc2c(c(C)nn2C(C)c2ccc(C(F)(F)F)cc2)c(=O)[nH]1` (stereo not shown) [Example 35, 6-(2-Ethoxyethyl)-3-methyl-1-(1-(4-(trifluoromethyl)phenyl)ethyl)-1H-pyrazolo[3,4-d]pyrimidin-4(5H)-one], the Ki under setting [1] came to 164 nM. On to `Cc1nc2c(c(CO)nn2C(c2ccc(OC(F)(F)F)c(F)c2)C(C)C)c(=O)[nH]1` (single isomer, unassigned) [Example 127, (S)- or (R)-1-(1-(3-Fluoro-4-(trifluoromethoxy)phenyl)-2-methylpropyl)-3-(hydroxymethyl)-6-methyl-1H-pyrazolo[3,4-d]pyrimidin-4(5H)-one], for which the Ki under setting [2] stood at 0.9 nM. As for `COc1ccc(C(=O)c2nc3c(c(C(F)F)nn3C(C)c3ccc(C(F)(F)F)cc3)c(=O)[nH]2)cc1OC` (stereo not shown) [Example 198, 3-(Difluoromethyl)-6-(3,4-dimethoxybenzoyl)-1-(1-(4-(trifluoromethyl)phenyl)ethyl)-1H-pyrazolo[3,4-d]pyrimidin-4(5H)-one], the Ki under setting [2] is 17 nM. Regarding `CCCc1nc2c(c(C)nn2C(C)c2ccc(C(F)(F)F)cc2)c(=O)[nH]1` (stereo not shown) [Example 41, 3-Methyl-6-propyl-1-{1-[4-(trifluoromethyl)phenyl]ethyl}-1,5-dihydro-4H-pyrazolo[3,4-d]pyrimidin-4-one], the Ki under setting [1] is 64 nM. For the compound `COc1ccc(Cc2nc3c(c(CF)nn3C(C)c3ccc(C(F)(F)F)cc3)c(=O)[nH]2)cc1OC` (single isomer, unassigned) [Example 223, (S)- or (R)-6-(3,4-Dimethoxybenzyl)-3-(fluoromethyl)-1-(1-(4-(trifluoromethyl)phenyl)ethyl)-1,5-dihydro-4H-pyrazolo[3,4-d]pyrimidin-4-one], under setting [1], the Ki stood at 26 nM. Consider `Cc1nc2c(c(C(F)F)nn2C(C)c2ccc(OC(F)F)cc2)c(=O)[nH]1` (single isomer, unassigned) [Example 182, (S)- or (R)-1-(1-(4-(Difluoromethoxy)phenyl)ethyl)-3-(difluoromethyl)-6-methyl-1H-pyrazolo[3,4-d]pyrimidin-4(5H)-one], for which the Ki under setting [2] was 1.2 nM. In the case of `COCc1nc2c(c(CF)nn2C(C)c2ccc(C(F)(F)F)cc2)c(=O)[nH]1` (stereo not shown) [Example 205, 3-(Fluoromethyl)-6-(methoxymethyl)-1-{1-[4-(trifluoromethyl)phenyl]ethyl}-1,5-dihydro-4H-pyrazolo[3,4-d]pyrimidin-4-one], the Ki under setting [2] amounted to 3.2 nM. In the case of `CCC(c1ccc(C(F)(F)F)cc1)n1nc(CO)c2c(=O)[nH]c(C)nc21` (single isomer, unassigned) [Example 132, (R)- or (S)-3-(Hydroxymethyl)-6-methyl-1-(1-(4-(trifluoro-methyl)phenyl)propyl)-1H-pyrazolo[3,4-d]pyrimidin-4(5H)-one], the Ki under setting [2] is 1.5 nM. On to `Cc1nc2c(c(CO)nn2Cc2ccc(C(F)(F)F)cc2)c(=O)[nH]1` [Example 8, 3-(Hydroxymethyl)-6-methyl-1-[4-(trifluoromethyl)benzyl]-1,5-dihydro-4H-pyrazolo[3,4-d]pyrimidin-4-one], for which the Ki under setting [1] turned out to be 192 nM. For the compound `Cc1nc2c(c(CO)nn2C(c2ccc(OC(F)(F)F)cc2)C2CC2)c(=O)[nH]1` (single isomer, unassigned) [Example 95, (S)- or (R)-1-(Cyclopropyl(4-(trifluoromethoxy)phenyl)methyl)-3-(hydroxymethyl)-6-methyl-1H-pyrazolo[3,4-d]pyrimidin-4(5H)-one], the Ki under setting [2] turned out to be 2.1 nM. With `Cc1nn(C(C)c2ccc(C(F)(F)F)cc2)c2nc(C3CCC3)[nH]c(=O)c12` (stereo not shown) [Example 39, 6-Cyclobutyl-3-methyl-1-{1-[4-(trifluoromethyl)phenyl]ethyl}-1,5-dihydro-4H-pyrazolo[3,4-d]pyrimidin-4-one], the Ki under setting [1] is 147 nM. Take `Cc1nc2c(c(CF)nn2C(c2ccc(C(F)(F)F)cc2)C2CC2)c(=O)[nH]1` (stereo not shown) [Example 231, 1-(cyclopropyl(4-(trifluoromethyl)phenyl)methyl)-3-(fluoromethyl)-6-methyl-1H-pyrazolo[3,4-d]pyrimidin-4(5H)-one]: the Ki is 0.87 nM under setting [1] and 1.2 nM under setting [2].

On to `COc1cccc(Cc2nc3c(c(C)nn3C(C)c3ccc(C(F)(F)F)cc3)c(=O)[nH]2)c1` (stereo not shown) [Example 45, 6-(3-Methoxybenzyl)-3-methyl-1-{1-[4-(trifluoromethyl)phenyl]ethyl}-1,5-dihydro-4H-pyrazolo[3,4-d]pyrimidin-4-one], for which the Ki under setting [1] is 26 nM. `Cc1nc2c(c(CO)nn2C(c2ccc(OC(F)(F)F)c(F)c2)C(C)C)c(=O)[nH]1` (single isomer, unassigned) [Example 126, (R)- or (S)-1-(1-(3-Fluoro-4-(trifluoromethoxy)phenyl)-2-methylpropyl)-3-(hydroxyl-methyl)-6-methyl-1H-pyrazolo-[3,4-d]pyrimidin-4(5H)-one]: under setting [2], the Ki was 6 nM.

Take `Cc1nc2c(c(CF)nn2C(c2ccc(C(F)(F)F)cc2)C(C)C)c(=O)[nH]1` (single isomer, unassigned) [Example 213, (S)- or (R)-3-(Fluoromethyl)-6-methyl-1-(2-methyl-1-(4-(trifluoromethyl)phenyl)propyl)-1H-pyrazolo[3,4-d]pyrimidin-4(5H)-one]: the inhibition constant (Ki) under setting [2] turned out to be 0.15 nM. The same measure, in the same setting: under `COc1ccc(Cc2nc3c(c(C(F)F)nn3C(C)c3ccc(C(F)(F)F)cc3)c(=O)[nH]2)cc1OC` (single isomer, unassigned) [Example 197] stands around 0.15 nM; under `Cc1nc2c(c(CO)nn2[C@@H](C)c2ccc(C(C)(C)C)cc2)c(=O)[nH]1` [Example 157, (S)-1-(1-(4-tert-Butylphenyl)ethyl)-3-(hydroxymethyl)-6-methyl-1H-pyrazolo[3,4-d]pyrimidin-4(5H)-one], 0.96 nM. Turning to `Cc1nn(C(C)c2ccc(C(F)(F)F)cc2)c2nc(Cc3cccc(O)c3)[nH]c(=O)c12` (stereo not shown) [Example 30, 6-(3-Hydroxybenzyl)-3-methyl-1-(1-(4-(trifluoromethyl)phenyl)ethyl)-1H-pyrazolo[3,4-d]pyrimidin-4(5H)-one], the Ki was determined as 6.6 nM under setting [1] and 11 nM under setting [2]. Taken in the same sequence, the figures for `Cc1nc2c(c(CF)nn2C(C)c2ccc(OC(F)(F)F)c(F)c2)c(=O)[nH]1` (single isomer, unassigned) [Example 216, (R)- or (S)-1-(1-(3-Fluoro-4-(trifluoromethoxy)phenyl)ethyl)-3-(fluoromethyl)-6-methyl-1H-pyrazolo[3,4-d]pyrimidin-4(5H)-one] were 19 nM and 41 nM.

For the compound `Cc1nc2c(c(CO)nn2C(C)c2ccc(C(F)(F)F)c(F)c2)c(=O)[nH]1` (stereo not shown) [Example 1, 1-(1-(3-Fluoro-4-(trifluoromethyl)phenyl)ethyl)-3-(hydroxymethyl)-6-methyl-1H-pyrazolo[3,4-d]pyrimidin-4(5H)-one], the Ki under setting [1] came out at 4.1 nM and the Ki under setting [2] was determined as 7.2 nM.

Consider `Cc1nc2c(c(C(F)F)nn2C(C)c2ccc(C(F)(F)F)cc2)c(=O)[nH]1` (stereo not shown) [Example 166, 3-(Difluoromethyl)-6-methyl-1-{1-[4-(trifluoromethyl)phenyl]ethyl}-1,5-dihydro-4H-pyrazolo[3,4-d]pyrimidin-4-one], for which the Ki is, setting by setting: under setting [1], 6.7 nM; under setting [2], 7.9 nM. With `Cc1nc2c(c(C(F)F)nn2C(c2ccc(OC(F)(F)F)c(F)c2)C2CC2)c(=O)[nH]1` (stereo not shown) [Example 193, 1-(Cyclopropyl(3-fluoro-4-(trifluoromethoxy)phenyl)methyl)-3-(difluoromethyl)-6-methyl-1H-pyrazolo[3,4-d]pyrimidin-4(5H)-one], the Ki under setting [2] came out at 1.2 nM.

Take `Cc1nc2c(c(CCl)nn2C(c2ccc(C(F)(F)F)cc2)C2CC2)c(=O)[nH]1` (stereo not shown) [Example 232, 3-(chloromethyl)-1-(cyclopropyl(4-(trifluoromethyl)phenyl)methyl)-6-methyl-1H-pyrazolo[3,4-d]pyrimidin-4(5H)-one]: the Ki runs as follows: under setting [1], 0.47 nM; under setting [2], 0.85 nM. For the compound `CCC(CCCc1ccccc1)n1nc(C)c2c(=O)[nH]c(C)nc21` (stereo not shown) [Example 338, 1-(1-ethyl-4-phenylbutyl)-3,6-dimethyl-1,5-dihydro-4H-pyrazolo[3,4-d]pyrimidin-4-one], under setting [1], the Ki came to 113 nM.
